Source: patent publication US20090099195A1 (ASTRAZENECA AB, priority 2007, published 2009)

How the values were obtained:
[1] = molecular target: T1, hP2X3 (human Purinergic P2X receptors subtype 3), clone A (Homo sapiens, UniProt P56373); experiment: hP2X3 FLIPR calcium (Fluo-4) antagonist assay, clone A; conditions: Human P2X3 FLIPR Clone A Mean IC50 (nM), RLE cells expressing hP2X3 clone A (AB016608); agonist 500 nM α,β-methylene-ATP
T1 sequence (P56373 1-397): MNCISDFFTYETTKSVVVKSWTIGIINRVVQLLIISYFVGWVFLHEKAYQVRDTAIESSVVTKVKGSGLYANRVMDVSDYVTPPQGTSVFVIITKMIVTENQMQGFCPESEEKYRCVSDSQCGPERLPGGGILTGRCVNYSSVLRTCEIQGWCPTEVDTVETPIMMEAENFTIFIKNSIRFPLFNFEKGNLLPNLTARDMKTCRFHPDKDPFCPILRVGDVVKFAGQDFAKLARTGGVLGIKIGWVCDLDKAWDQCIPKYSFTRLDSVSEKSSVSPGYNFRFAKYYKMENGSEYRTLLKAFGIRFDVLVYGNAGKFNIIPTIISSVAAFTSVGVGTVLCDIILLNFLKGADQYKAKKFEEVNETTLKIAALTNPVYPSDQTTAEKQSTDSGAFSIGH
Description: (§1) The assay used a calcium indicator dye (Fluo-4) that emits fluorescence, the intensity of which is related to the concentration of calcium that entered the cell when P2X3 was activated and the channel opened. Activation of hP2X3 or rat P2X3 and rat P2X2/3 (from the coexpression of rat P2X3 and rat P2×2) is elicited the by P2X3 agonist α,β methylene-ATP (Sigma M6517), and the resulting fluorescence is measured with a FLIPR II™ instrument (Molecular Devices). Compounds are tested for their ability to inhibit the agonist-induced fluorescent signal.
(§2) For the rat P2X2/3 HEK-TREX cells, induction of the rat P2X3 expression is used to generate the rat P2X2/3 channels in HEK-TREX cells and performed by addition of 1 μg/mL tetracycline (Invitrogen) 24 h prior to compounds testing to the HEK-TREX expressing the rat P2X2 constitutively. On the day of the experiment, the cells and test compounds are prepared as follows. […] After preparing the compounds, the medium is removed from the cell plates by inversion. A loading solution of 30 μL assay buffer containing 4 μM of the calcium indicator dye FLUO-4 AM (Molecular Probes F14202) is added to each well using a Multidrop (Labsystems). […] The incubation is terminated by washing the cells four times in assay buffer using a Skatron Embla (Molecular Devices), and 25 μL of assay buffer was left in each well. Cell plates are then transferred to the FLIPR. Experiments are initiated by measuring a baseline fluorescence reading for 10 seconds, followed by the addition of 12.5 μL of cpds and data sampling for a total 280 seconds. The experiments are terminated by addition of 12.5 μL of a reference agonist (500 nM α,β-methylene-ATP) or buffer, producing a final assay volume of 50 μL followed by data sampling for an additional 280 seconds.
(§3) In P2X3 antagonist experiments (human and rat assays) data are analysed as normalised maximal peak fluorescence monitored following agonist addition and calculated as percent of relative fluorescent counts from control agonist. The dose-response antagonist inhibition curves are analyzed in a 4-parameter sigmoidal fit using a non-linear curve-fitting program (XLfit version 5.0.6, ID Business Solutions Limited, Guildford, UK).

[2] = molecular target: T2, rat P2X2/3 (rat P2X3 co-expressed with rat P2X2) (Rattus norvegicus, UniProt P49653+P49654); experiment: rat P2X2/3 FLIPR calcium (Fluo-4) antagonist assay; conditions: Rat P2X2/3 FLIPR Mean IC50 (nM), HEK-TREX cells, tetracycline-induced rat P2X3 with constitutive rat P2X2; agonist 500 nM α,β-methylene-ATP
T2 sequence (P49654 1-397): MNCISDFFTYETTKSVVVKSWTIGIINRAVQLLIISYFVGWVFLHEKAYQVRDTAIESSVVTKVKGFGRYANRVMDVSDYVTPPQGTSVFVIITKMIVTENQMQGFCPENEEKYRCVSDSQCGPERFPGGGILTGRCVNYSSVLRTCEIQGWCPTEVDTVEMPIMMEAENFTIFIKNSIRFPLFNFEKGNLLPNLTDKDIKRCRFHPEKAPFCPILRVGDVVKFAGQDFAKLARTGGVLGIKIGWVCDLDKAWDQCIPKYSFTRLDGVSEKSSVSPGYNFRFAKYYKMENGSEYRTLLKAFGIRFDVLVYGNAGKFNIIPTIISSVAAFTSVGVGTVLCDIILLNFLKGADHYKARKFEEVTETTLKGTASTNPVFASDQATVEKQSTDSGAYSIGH
T2 sequence (P49653 1-472): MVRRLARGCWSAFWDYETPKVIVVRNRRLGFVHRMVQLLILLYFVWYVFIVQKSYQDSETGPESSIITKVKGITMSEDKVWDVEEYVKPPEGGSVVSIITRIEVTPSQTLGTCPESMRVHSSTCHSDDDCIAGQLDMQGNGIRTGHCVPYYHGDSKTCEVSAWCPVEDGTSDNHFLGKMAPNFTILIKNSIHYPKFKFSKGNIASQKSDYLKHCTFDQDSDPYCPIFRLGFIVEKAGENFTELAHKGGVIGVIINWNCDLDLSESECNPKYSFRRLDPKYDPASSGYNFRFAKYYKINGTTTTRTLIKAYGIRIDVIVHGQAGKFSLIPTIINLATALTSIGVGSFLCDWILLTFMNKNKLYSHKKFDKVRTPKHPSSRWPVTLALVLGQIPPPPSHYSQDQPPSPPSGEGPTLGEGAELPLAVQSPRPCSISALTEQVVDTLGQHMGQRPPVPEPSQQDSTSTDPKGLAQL
Description: as §1, §2, §3

[3] = molecular target: T3, hP2X3 (human Purinergic P2X receptors subtype 3), clone B (Homo sapiens, UniProt P56373); experiment: hP2X3 FLIPR calcium (Fluo-4) antagonist assay, clone B; conditions: Human P2X3 FLIPR Clone B IC50 (nM), RLE cells expressing hP2X3 clone B (NM_002559); agonist 500 nM α,β-methylene-ATP
T3 sequence (P56373 1-397): T1 sequence (P56373 1-397)
Description: as §1, §2, §3

Row | Structure (SMILES) | IC50 [1] [nM] | IC50 [2] [nM] | IC50 [3] [nM]
1 | CC(C)N1Cc2c(NC(C)(C)Cc3ccc(Cl)cc3)nc(N3CCN(C)C(=O)C3)nc2C1=O [Example 69, 4-{[2-(4-chlorophenyl)-1,1-dimethylethyl]amino}-6-isopropyl-2-(4-methyl-3-oxopiperazin-1-yl)-5,6-dihydro-7H-pyrrolo[3,4-d]pyrimidin-7-one] | 86.2 | 1920 | 140
2 | CC(=O)N1CCN(c2nc3c(c(N4CCCC4c4cnc5ccccc5c4)n2)CN(C(C)C)C3=O)CC1 (stereo not drawn) [Example 274, 4-(4-acetylpiperazin-1-yl)-8-propan-2-yl-2-(2-quinolin-3-ylpyrrolidin-1-yl)-3,5,8-triazabicyclo[4.3.0]nona-1,3,5-trien-7-one] | – | 768 | 170
3 | CC(=O)N1CCN(c2nc(NCc3ccc(OC(F)(F)F)cc3C)c3c(n2)C(=O)N(C(C)C)C3)CC1 [Example 122, 2-(4-acetylpiperazin-1-yl)-6-isopropyl-4-{[2-methyl-4-(trifluoromethoxy)benzyl]amino}-5,6-dihydro-7H-pyrrolo[3,4-d]pyrimidin-7-one] | – | 6320 | 130
4 | CC(=O)N1CCN(c2nc3c(c(N4CCCC4c4cnc5ccccc5c4)n2)CN(C(C)C)C3=O)CC1 (single isomer, unassigned) [Example 282, 4-(4-acetylpiperazin-1-yl)-8-propan-2-yl-2-(2-quinolin-3-ylpyrrolidin-1-yl)-3,5,8-triazabicyclo[4.3.0]nona-1,3,5-trien-7-one] | – | 2530 | 550
5 | CC(=O)N1CCN(c2nc(N[C@@H](C)c3cnc4ccccc4c3)c3c(n2)C(=O)N(C(C)C)C3)CC1 (single isomer, unassigned) [Example 345] | – | 1910 | 66
6 | CC(=O)N1CCN(c2nc3c(c(N4CCCC4c4cnc5ccccc5c4)n2)CN(C(C)C)C3=O)CC1 (single isomer, unassigned) [Example 283, 4-(4-acetylpiperazin-1-yl)-8-propan-2-yl-2-(2-quinolin-3-ylpyrrolidin-1-yl)-3,5,8-triazabicyclo[4.3.0]nona-1,3,5-trien-7-one] | – | 253 | 87
7 | CC(=O)N1CCN(c2nc(N[C@H](C)c3ccc4ncccc4c3)c3c(n2)C(=O)N(C(C)C)C3)CC1 [Example 243, (R)-2-(4-acetylpiperazin-1-yl)-6-isopropyl-4-(1-(quinolin-6-yl)ethylamino)-5H-pyrrolo[3,4-d]pyrimidin-7(6H)-one] | – | 1240 | 36
8 | CC(=O)N1CCN(c2nc3c(c(N4CCC[C@@H]4C(=O)OCc4ccccc4)n2)CN(C(C)C)C3=O)CC1 [Example 265, benzyl (2R)-1-[4-(4-acetylpiperazin-1-yl)-7-oxo-8-propan-2-yl-3,5,8-triazabicyclo[4.3.0]nona-1,3,5-trien-2-yl]pyrrolidine-2-carboxylate] | – | 15700 | 850
9 | CCN(Cc1cnc2ccccc2c1)c1nc(N2CCN(C(C)=O)CC2)nc2c1CN(C(C)C)C2=O [Example 246, 2-(4-acetylpiperazin-1-yl)-4-(ethyl(quinolin-3-ylmethyl)amino)-6-isopropyl-5H-pyrrolo[3,4-d]pyrimidin-7(6H)-one] | – | 10400 | 68
10 | COc1ccc(CC2CCCN2c2nc(N3CCN(C(C)=O)CC3)nc3c2CN(C(C)C)C3=O)cc1 (stereo not drawn) [Example 286, 2-(4-acetylpiperazin-1-yl)-6-isopropyl-4-[2-[(4-methoxyphenyl)methyl]pyrrolidin-1-yl]-5H-pyrrolo[3,4-d]pyrimidin-7-one] | – | 3430 | 67
11 | CC(=O)N1CCN(c2nc3c(c(N4CCC[C@@H]4Cc4ccccc4)n2)CN(C(C)C)C3=O)CC1 [Example 116, 2-(4-acetylpiperazin-1-yl)-4-[(2R)-2-benzylpyrrolidin-1-yl]-6-isopropyl-5,6-dihydro-7H-pyrrolo[3,4-d]pyrimidin-7-one] | – | 10300 | 57
12 | CC(=O)N1CCN(c2nc3c(c(N4CCC[C@@H]4C(=O)Oc4ccccc4)n2)CN(C(C)C)C3=O)CC1 [Example 304, phenyl (2R)-1-[4-(4-acetylpiperazin-1-yl)-7-oxo-8-propan-2-yl-3,5,8-triazabicyclo[4.3.0]nona-1,3,5-trien-2-yl]pyrrolidine-2-carboxylate] | – | 8730 | 71
13 | CC(C)N1Cc2c(NC(C)(C)Cc3ccc(F)cc3)nc(N3CCN4C(=O)OC[C@H]4C3)nc2C1=O [Example 140, (R)-7-{4-[2-(4-Fluoro-phenyl)-1,1-dimethyl-ethylamino]-6-isopropyl-7-oxo-6,7-dihydro-5H-pyrrolo[3,4-d]pyrimidin-2-yl}-hexahydro-oxazolo[3,4-a]pyrazin-3-one] | – | 8470 | 1100
14 | CC(=O)N1CCN(c2nc(NCc3cc(-c4ccccc4)on3)c3c(n2)C(=O)N(C(C)C)C3)CC1 [Example 144, 4-(4-acetylpiperazin-1-yl)-2-[(5-phenyl-1,2-oxazol-3-yl)methylamino]-8-propan-2-yl-3,5,8-triazabicyclo[4.3.0]nona-1,3,5-trien-7-one] | – | 4800 | 45
15 | CC(=O)N1CCN(c2nc3c(c(N4CCCC4Cc4ccc(C)cc4)n2)CN(C(C)C)C3=O)CC1 (stereo not drawn) [Example 47, 2-(4-acetylpiperazin-1-yl)-6-isopropyl-4-[2-(4-methylbenzyl)pyrrolidin-1-yl]-5,6-dihydro-7H-pyrrolo[3,4-d]pyrimidin-7-one] | – | 2680 | 130
16 | CC(=O)N1CCN(c2nc(NCc3cc(C)c4ncccc4c3)c3c(n2)C(=O)N(C(C)C)C3)CC1 [Example 247, 2-(4-acetylpiperazin-1-yl)-6-isopropyl-4-((8-methylquinolin-6-yl)methylamino)-5H-pyrrolo[3,4-d]pyrimidin-7(6H)-one] | – | 9070 | 77
